Our source for the IC50 and Cytotoxicity values is paper PMC6891263, “Alkaloids with Nitric Oxide Inhibitory Activities from the Roots of Isatis tinctoria” (Molecules, 2019).

Where only a bound is given, the exact number is not on record here.

The subject of data set [1] is nitric oxide (NO) production, LPS-stimulated RAW264.7 macrophages. The data set is described as follows: Inhibitory assay of NO production (Griess reagent) in LPS-stimulated RAW264.7 macrophages. It is filed as cell-based. The following applies: LPS 100 ng/mL for 24 h, 30 min pretreatment, mean ± SD (n = 3). As to the method:
NO is a messenger molecule that is widespread in cells and can affect a variety of physiological and pathological processes. The production of NO causes tissue damage and can trigger a variety of inflammatory diseases. LPS induces the release of NO from RAW264.7 cells by detecting the release of NO widely used to investigate the anti-inflammatory effects of the compounds [2, 10, 40]. […]
Inhibitory Assay of NO Production […]
(§1) Compounds 1-23 were dissolved in dimethyl sulfoxide (DMSO) and diluted with complete medium to 6 degrees of concentration […]
were maintained in Dulbecco’s modified Eagle’s medium (high-glucose condition) supplemented with 10% fetal calf serum, 100 U/mL penicillin, and 100 μg/mL streptomycin at 37 °C in 5% CO 2. RAW 264.7 cells were pretreated with each tested compound for 30 min, and then stimulated with lipopolysaccharide (LPS) (100 ng/mL) for 24 h. Aminoguanidine hydrochloride (100 μM) was used as a positive control. The NO production was measured using the Griess reagent. Briefly, the cell culture supernatant was reacted with equal volumes of Griess reagent in a 96-well plate for 10 min, and then the absorbance at 540 nm was measured by a plate reader. All experiments were performed in triplicate. All tested compounds were prepared as stock solutions with a concentration of 10 mM in DMSO. […]
(In general: The Griess reaction detects nitrite, a stable product of nitric oxide.)

In a further data set the test system is RAW264.7 cells. The data set can be described thus: Cytotoxicity by Cell Counting Kit-8 (CCK-8). Conditions: CCK-8, tested at 25, 50 and 100 μM. How it is done: Inhibitory Assay of NO Production
Cytotoxicity was examined using the Cell Counting Kit-8 (CCK-8). RAW264.7 cells were taken from logarithmic growth stage and the cell density reached above 80%. And then, the cells were inoculated on 96-well cell culture plates at […], with 3 ×10^4 cells per well, cultured overnight at 37 °C with 5% CO 2. After 24h, the culture medium in the 96-well plate was discarded, the solution was changed and different concentrations (25 μM, 50 μM and 100 μM) of drugs were added. The absorbance at 450 nm was measured using a microplate reader (Thermo Fisher Scientific). Viability was defined as the ratio (expressed as a percentage) of absorbance values of treated cells to untreated cells.
as §1
were maintained in Dulbecco’s modified Eagle’s medium (high-glucose condition) supplemented with 10% fetal calf serum, 100 U/mL penicillin, and 100 μg/mL streptomycin at 37 °C in 5% CO 2. […]
(Formazan colour is commonly taken as a measure of viable cells.)

The mark [2] stands for this setting: Mus musculus, RAW264.7, RAW 264.7 cell line.

For orientation: IC50 means the concentration needed to halve the response being measured. As to “2-(1H-indol-2-yl)-4(3H)-quinolinone [Compound 8]”, the IC50 in data set [1] (RAW 264.7 cell line) was greater than 100 µM.

Regarding `Cl.N=C(N)NN` [AG, aminoguanidine hydrochloride, reference compound], the Cytotoxicity in the data set with RAW264.7 cells is greater than 100 µM. Further, in data set [1] (RAW 264.7 cell line), the IC50 came to 22.7 ± 0.4 µM.

Turning to `O=c1cc(-c2ccc(O)cc2)c2cc(O)ccc2[nH]1` [Compound 1, Isatisindigoticanine E], in the data set on RAW264.7 cells, the Cytotoxicity is greater than 100 µM. For the same molecule, the half-inhibitory concentration (IC50) in data set [1] (setting [2]) was greater than 100 µM.

Regarding `COc1cccc2[nH]c(=O)cc(-c3cc4ccccc4[nH]3)c12` [Compound 2, Isatisindigoticanine F], in the data set on RAW264.7 cells, the Cytotoxicity is greater than 100 µM. Besides, in data set [1] (setting [2]), the half-maximal inhibitory concentration (IC50) was greater than 100 µM.

For the molecule `O=c1c2ccccc2nc2n1CCC(c1c[nH]c3ccccc13)=C2` [Compound 3, Isatisindigoticanine G], the Cytotoxicity in the data set on RAW264.7 cells was greater than 100 µM. Besides, the IC50 in data set [1] (setting [2]) was greater than 100 µM.

In the data set with RAW264.7 cells, `O=c1cc(-c2ccc(O)cc2)c2ccccc2[nH]1` [Compound 4, 4-p-hydroxyphenyl-2(1H)-quinolinone] came in with a Cytotoxicity greater than 100 µM. In addition, in data set [1] (setting [2]), the IC50 is greater than 100 µM.

As for `COc1ccc2nc(-c3cc4ccccc4[nH]3)[nH]c(=O)c2c1` [Compound 5, 2-(1H-indol-2-yl)-6-methoxy-4(3H)-quinazolinone], the Cytotoxicity in the data set with RAW264.7 cells is greater than 100 µM. Besides, the IC50 in data set [1] (setting [2]) was greater than 100 µM.

Molecule `O=c1[nH]c(-c2ccccc2O)nc2ccccc12` [Compound 6, 2-(2-hydroxyphenyl)-4(3H)-quinazolinone] returned a Cytotoxicity in the data set with RAW264.7 cells greater than 100 µM. Besides, in data set [1] (setting [2]), the IC50 is greater than 100 µM.

In the data set on RAW264.7 cells, `C=CCCc1nc2ccccc2c(=O)[nH]1` [Compound 7, 2-(but-3-en-1-yl)-4(3H)-quinazolinone] showed a Cytotoxicity greater than 100 µM. Moreover, the IC50 in data set [1] (setting [2]) is greater than 100 µM.

`O=C(O)CCn1c(=O)[nH]c2ccccc2c1=O` [Compound 10, 3-(2,4-dioxo-1,2-dihydroquinazolin-3(4H)-yl)propanoic acid] came in with a Cytotoxicity with RAW264.7 cells greater than 100 µM. The IC50 in data set [1] (setting [2]) is greater than 100 µM.

With `O=c1[nH]c2ccccc2c(=O)n1CCCCO` [Compound 11, indiforine C], the Cytotoxicity in the data set with RAW264.7 cells is greater than 100 µM. Besides, the IC50 in data set [1] (setting [2]) was greater than 100 µM.

With `O=C(O)CCCn1c(=O)[nH]c2ccccc2c1=O` [Compound 12, 4-(2,4-dioxo-1,2-dihydroquinazolin-3(4H)-yl)butanoic acid], the Cytotoxicity with RAW264.7 cells was greater than 100 µM. Besides, in data set [1] (setting [2]), the IC50 was greater than 100 µM.

Molecule `COC(=O)CCCn1c(=O)[nH]c2ccccc2c1=O` [Compound 13, methyl 4-(2,4-dioxo-1,2-dihydroquinazolin-3(4H)-yl)butanoate] came in with a Cytotoxicity with RAW264.7 cells greater than 100 µM. The IC50 in data set [1] (setting [2]) is greater than 100 µM.

Molecule `O=c1c2ccccc2ncn1-c1ccccc1O` [Compound 14, 3-(2-hydroxyphenyl)-4(3H)-quinazolinone] yielded a Cytotoxicity in the data set with RAW264.7 cells greater than 100 µM. The IC50 in data set [1] (setting [2]) is greater than 100 µM.

As to `O=C(O)c1ccccc1-n1cnc2ccccc2c1=O` [Compound 15, 3-(2-carboxyphenyl)-4(3H)-quinazolinone], the Cytotoxicity in the data set on RAW264.7 cells was greater than 100 µM. Also, the IC50 in data set [1] (setting [2]) was 5 ± 1.3 µM.

In the data set on RAW264.7 cells, `Cc1nc(O)nc2ccccc12` [Compound 16, 4-methyl-1,2-dihydro-2-oxoquinazoline] showed a Cytotoxicity greater than 100 µM. In addition, in data set [1] (setting [2]), the concentration for half-maximal inhibition (IC50) is greater than 100 µM.

`Cc1nc2ccccc2c(=O)[nH]1` [Compound 17, 2-methyl-4(3H)-quinazolinone] registered a Cytotoxicity with RAW264.7 cells greater than 100 µM.

For `Cc1c(O)c2ccccc2[nH]c1=O` [Compound 18, 4-hydroxy-3-methyl-2(1H)-quinolinone], in the data set on RAW264.7 cells, the Cytotoxicity is greater than 100 µM. Besides, the IC50 in data set [1] (setting [2]) was greater than 100 µM.

In turn, `Nc1cc(C(=O)O)c2ccccc2n1` [Compound 19, 2-amino-4-quinolinecarboxylic acid] yielded a Cytotoxicity in the data set with RAW264.7 cells greater than 100 µM. Moreover, the IC50 in data set [1] (setting [2]) was greater than 100 µM.

Regarding `Oc1ccnc2ccccc12` [Compound 20, 4(1H)-quinolinone], the Cytotoxicity in the data set with RAW264.7 cells was greater than 100 µM.

In turn, `O=C(O)c1cnc2ccccc2c1O` [Compound 21, 4(1H)-quinolone-3-carboxylic acid] came in with a Cytotoxicity with RAW264.7 cells greater than 100 µM. Also, the IC50 in data set [1] (setting [2]) was greater than 100 µM.

The molecule `NC(=O)C(c1[nH]c2ccccc2c1OC1OC(CO)C(O)C(O)C1O)c1c[nH]c2ccccc12` (centres unmarked) [Compound 23, Isatindigoside D] registered a Cytotoxicity with RAW264.7 cells greater than 100 µM. For the same molecule, the IC50 in data set [1] (setting [2]) was greater than 100 µM.
